Laboratory results as given in paper doi:10.1101/2025.03.14.643404, “A Bivalent Molecular Glue Linking Lysine Acetyltransferases to Oncogene-induced Cell Death” (bioRxiv, 2025).

Columns and labels:
[1] = tested on: SUDHL5^TRE−3xFLAG-MYC cells; assay: Viability of SUDHL5 TRE-3xFLAG-MYC cells, 72 h; type: cell-based; conditions: Homo sapiens
Procedure: Thirty thousand cells were seeded in 100 μl of media per well of a 96-well plate and treated with drug for the indicated times and doses. A resazurin-based indicator of cell health (PrestoBlue; P50200, Thermo Fisher) was added for 1.5 h at 37°C, at which point the fluorescence ratio at 560/590 nm was recorded (Tecan Spark). The background fluorescence was subtracted, and the signal was normalized to DMSO-treated cells. IC50 measurements on cell lines were calculated using at least three biological replicates (separate cell passages). Fit of dose–response curves to data and statistical analysis was performed using GraphPad PRISM using the four-parameter log(inhibitor) vs response function.
An N-terminal fusion of 3xFLAG followed by a GGSGS linker fused to the coding sequence of human c-MYC (NM_002467.6)) was subcloned into pCW57-MCS1–2A-MCS2 (a gift from Adam Karpf (Addgene plasmid 71782; http://n2t.net/addgene:71782; RRID:Addgene_71782)).
This construct is the same used for BCL6 nanoBRET studies above. Lentivirus was produced from HEK293T cells via polyethylenimine transfection. Briefly, cells were transfected using 2nd-generation packaging plasmids and media replaced after 24 hours. […]

SUDHL5 cells = assay: Annexin V staining of SUDHL5; type: cell-based, human
Procedure: 25,000 cells were plated in 200 μL of media in 96 well U-bottom plates and treated with compound. […] Centrifugation and washing was repeated once more. Cells were then resuspended in 50 μL cold binding buffer (10 mM HEPES pH 7.4, 140 mM NaCl, 2.5 mM CaCl2) and 2.5 μL FITC-Annexin-V (Biolegend 640922). A no-stain control was also included to draw gates. The plate was allowed to incubate for 15 minutes at room temperature, at which point 100 μL of 2.5% FBS in PBS was added to each well. The plate was gently agitated through shaking, and samples were analyzed by flow cytometry on a BD Accuri. At least 50k events were collected per sample.

CBP^BD-BCL6^BTB = assay: TR-FRET ternary assay CBPBD-BCL6BTB; type: binding, human
Procedure: 10 μL reactions containing 10 nM 6x-His- p300^BD or 6x-His-CBP^BD, 200 nM BiotinylatedAvi-BCL6^BTB, 20 nM streptavidin-FITC (SA1001, Thermo), and 1:400 anti-6x-His-terbium (PerkinElmer 61HI2TLF) in buffer containing 20 mM HEPES pH 7.5, 150 mM NaCl, 0.1% BSA, 0.1% NP-40, and 1 mM TCEP were plated in low-volume 384 well plates. Drugs were digitally dispensed (Tecan D300e) into protein-containing wells, and the plate was allowed to incubate in the dark for 1 hour at room temperature. Emission at 490 nm (terbium) and 520 nm (FITC) was measured on a PHERAstar FS plate reader (BMG Labtech) upon excitation with 337 nm. The ratio of signal at 520 nm to 490 nm was calculated and normalized to DMSO-treated protein.

CNC(=O)COc1cc2cc(Nc3nc(N4CCC(C(=O)N5CCN(CCC(=O)N6CCC(n7nc(N8CCCc9cc(-c%10cnn(C)c%10)c(C(F)F)cc98)c8c7CCN(C(=O)NC)C8)CC6)CC5)CC4)ncc3Cl)cc(OC)c2n(C)c1=O [TCIP3]
IC50 ([1]; SU-DHL-5, + dox (1 μg/mL doxycycline 24 h prior)): ~7.5 nM | IC50 ([1]; SU-DHL-5, − dox): ~2 nM | Annexin V-positive cells, times higher than DMSO (SUDHL5 cells; SUDHL5, 10 nM, 72 hours): 2.9 times | Annexin V-positive cells, times higher than NEG1 (SUDHL5 cells; SUDHL5, 10 nM, 72 hours): 2.3 times | Annexin V-positive cells, times higher than NEG2 (SUDHL5 cells; SUDHL5, 10 nM, 72 hours): 2.5 times | cells stained positive for Annexin V (SUDHL5 cells; SUDHL5, 10 nM, 72 hours): 82% | induction of apoptosis (SUDHL5 cells; SUDHL5, 24, 48, 72 hours): significant increases in Annexin V-positive cells began after 48 hours | TR-FRET signal AUC, times higher than NEG1 (CBP^BD-BCL6^BTB): 16 times | TR-FRET signal AUC, times higher than NEG2 (CBP^BD-BCL6^BTB): 25 times
